Assay type in all cases: cell-based
Holding throughout (conditions): compounds at 50 nM and 500 nM

For test [1], the target named is T1, IKZF2 (Homo sapiens, UniProt Q96SW2+Q9UKS7).
T1 construct: The supernatant was aspirated as the extracted total cell protein; endogenous in cells; host or cells: human peripheral blood mononuclear cells (hPBMCs)
Nature of the test: Western blot degradation of IKZF2 in hPBMCs (24 h). In a few lines:
(§1)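 Western blot densitometry after 24 h treatment of human PBMCs (1×10^6 cells/mL) with 50 nM or 500 nM compound. Remaining target (%) = band intensity over internal-control band, normalized to DMSO; degradation = 1 − remaining; DC50 is the concentration giving half the DMSO band signal.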

For test [2], the target named is T2, IKZF1 (Homo sapiens, UniProt Q13422+Q96SW2).
T2 construct: The supernatant was aspirated as the extracted total cell protein; endogenous in cells; host or cells: human peripheral blood mononuclear cells (hPBMCs)
The test can be described thus: Western blot degradation of IKZF1 in hPBMCs (24 h). Put shortly:
as §1

The target of test [3] is T3, CK1α (Homo sapiens, UniProt P48729+Q96SW2).
T3 construct: The supernatant was aspirated as the extracted total cell protein; endogenous in cells; host or cells: human peripheral blood mononuclear cells (hPBMCs)
Nature of the test: Western blot degradation of CK1α in hPBMCs (24 h). Put shortly: as §1

The target in test [4] is T4, IKZF3 (Homo sapiens, UniProt Q96SW2+Q9UKT9).
T4 construct: The supernatant was aspirated as the extracted total cell protein; endogenous in cells; host or cells: human peripheral blood mononuclear cells (hPBMCs)
The test can be described thus: Western blot degradation of IKZF3 in hPBMCs (24 h). Put shortly:
as §1

In test [5] the target is T5, GSPT1 (Homo sapiens, UniProt P15170+Q96SW2).
T5 construct: The supernatant was aspirated as the extracted total cell protein; endogenous in cells; host or cells: human peripheral blood mononuclear cells (hPBMCs)
Nature of the test: Western blot degradation of GSPT1 in hPBMCs (24 h). Put shortly: as §1

The target of test [6] is T6, WEE1 (Homo sapiens, UniProt P30291+Q96SW2).
T6 construct: The supernatant was aspirated as the extracted total cell protein; endogenous in cells; host or cells: human peripheral blood mononuclear cells (hPBMCs)
Nature of the test: Western blot degradation of WEE1 in hPBMCs (24 h). Put shortly: as §1

T2 sequence (Q13422 whole entry): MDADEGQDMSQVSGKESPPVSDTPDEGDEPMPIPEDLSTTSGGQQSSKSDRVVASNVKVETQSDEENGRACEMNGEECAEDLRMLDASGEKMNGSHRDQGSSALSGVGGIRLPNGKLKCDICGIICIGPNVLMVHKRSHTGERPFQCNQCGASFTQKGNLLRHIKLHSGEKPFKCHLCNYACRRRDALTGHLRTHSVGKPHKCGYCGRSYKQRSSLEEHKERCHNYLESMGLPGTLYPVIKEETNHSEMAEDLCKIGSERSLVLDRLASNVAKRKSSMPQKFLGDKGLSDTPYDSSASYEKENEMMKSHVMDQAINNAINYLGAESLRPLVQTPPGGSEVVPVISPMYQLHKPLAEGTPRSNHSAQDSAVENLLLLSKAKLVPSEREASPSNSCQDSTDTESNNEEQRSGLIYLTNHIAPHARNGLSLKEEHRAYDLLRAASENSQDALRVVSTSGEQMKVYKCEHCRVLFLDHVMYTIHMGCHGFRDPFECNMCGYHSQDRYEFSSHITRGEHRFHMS
T2 sequence (Q96SW2 whole entry): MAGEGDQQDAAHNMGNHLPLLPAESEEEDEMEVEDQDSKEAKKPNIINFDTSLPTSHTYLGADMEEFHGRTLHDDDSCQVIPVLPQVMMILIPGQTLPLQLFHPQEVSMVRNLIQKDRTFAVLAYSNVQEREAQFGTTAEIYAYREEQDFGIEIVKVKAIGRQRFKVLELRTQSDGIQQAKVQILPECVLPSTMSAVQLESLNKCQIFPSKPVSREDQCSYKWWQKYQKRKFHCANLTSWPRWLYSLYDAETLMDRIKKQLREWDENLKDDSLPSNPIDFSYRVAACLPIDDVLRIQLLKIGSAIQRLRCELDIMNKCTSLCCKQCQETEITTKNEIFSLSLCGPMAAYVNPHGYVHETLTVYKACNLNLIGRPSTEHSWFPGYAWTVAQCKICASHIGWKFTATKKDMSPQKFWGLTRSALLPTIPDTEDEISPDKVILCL
T2 sequence (Q16531 whole entry partner): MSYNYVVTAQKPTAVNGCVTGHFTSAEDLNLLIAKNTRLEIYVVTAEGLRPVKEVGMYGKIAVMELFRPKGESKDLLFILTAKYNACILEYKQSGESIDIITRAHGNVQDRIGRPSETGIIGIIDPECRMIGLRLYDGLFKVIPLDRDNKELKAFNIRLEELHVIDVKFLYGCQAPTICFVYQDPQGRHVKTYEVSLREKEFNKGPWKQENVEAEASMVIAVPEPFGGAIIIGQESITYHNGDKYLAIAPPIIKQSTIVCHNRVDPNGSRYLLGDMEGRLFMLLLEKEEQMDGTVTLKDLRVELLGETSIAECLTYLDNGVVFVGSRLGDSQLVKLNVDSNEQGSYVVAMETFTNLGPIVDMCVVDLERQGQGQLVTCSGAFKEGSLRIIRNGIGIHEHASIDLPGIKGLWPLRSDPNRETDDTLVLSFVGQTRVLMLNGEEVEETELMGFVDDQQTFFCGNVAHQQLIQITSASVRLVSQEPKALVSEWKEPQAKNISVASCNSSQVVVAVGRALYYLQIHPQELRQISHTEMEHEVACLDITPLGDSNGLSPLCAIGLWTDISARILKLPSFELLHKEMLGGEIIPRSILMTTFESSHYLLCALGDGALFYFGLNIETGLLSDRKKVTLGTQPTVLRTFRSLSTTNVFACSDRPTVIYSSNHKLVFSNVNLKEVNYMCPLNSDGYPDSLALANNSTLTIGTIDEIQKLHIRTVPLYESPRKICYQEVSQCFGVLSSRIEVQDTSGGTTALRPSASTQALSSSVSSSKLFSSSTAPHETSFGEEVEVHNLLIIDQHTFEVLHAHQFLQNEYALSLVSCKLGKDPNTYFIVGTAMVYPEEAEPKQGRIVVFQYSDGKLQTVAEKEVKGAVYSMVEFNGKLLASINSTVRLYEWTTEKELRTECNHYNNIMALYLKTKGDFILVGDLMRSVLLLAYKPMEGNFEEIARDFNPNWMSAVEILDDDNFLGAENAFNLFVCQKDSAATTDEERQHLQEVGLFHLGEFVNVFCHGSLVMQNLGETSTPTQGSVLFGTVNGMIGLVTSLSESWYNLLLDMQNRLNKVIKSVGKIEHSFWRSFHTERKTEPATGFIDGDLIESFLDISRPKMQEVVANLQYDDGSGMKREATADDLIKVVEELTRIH
T4 sequence (Q9UKT9 whole entry): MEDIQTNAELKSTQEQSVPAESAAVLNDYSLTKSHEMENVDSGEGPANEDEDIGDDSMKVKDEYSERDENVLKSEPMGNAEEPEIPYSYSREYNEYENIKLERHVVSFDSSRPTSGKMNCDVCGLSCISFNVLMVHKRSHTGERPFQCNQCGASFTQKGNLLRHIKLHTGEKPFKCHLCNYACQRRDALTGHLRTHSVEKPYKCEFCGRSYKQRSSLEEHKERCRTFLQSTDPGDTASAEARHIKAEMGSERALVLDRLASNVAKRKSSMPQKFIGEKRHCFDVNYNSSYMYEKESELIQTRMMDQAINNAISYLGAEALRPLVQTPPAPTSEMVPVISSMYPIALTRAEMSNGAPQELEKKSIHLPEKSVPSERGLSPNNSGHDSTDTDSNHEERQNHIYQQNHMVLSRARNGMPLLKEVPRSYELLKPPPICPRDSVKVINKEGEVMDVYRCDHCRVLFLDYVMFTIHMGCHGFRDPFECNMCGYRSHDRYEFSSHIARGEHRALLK
T4 sequence (Q96SW2 whole entry): as the sequence (Q96SW2 whole entry) above
T4 sequence (Q16531 whole entry partner): as the sequence (Q16531 whole entry partner) above
T6 sequence (P30291 whole entry): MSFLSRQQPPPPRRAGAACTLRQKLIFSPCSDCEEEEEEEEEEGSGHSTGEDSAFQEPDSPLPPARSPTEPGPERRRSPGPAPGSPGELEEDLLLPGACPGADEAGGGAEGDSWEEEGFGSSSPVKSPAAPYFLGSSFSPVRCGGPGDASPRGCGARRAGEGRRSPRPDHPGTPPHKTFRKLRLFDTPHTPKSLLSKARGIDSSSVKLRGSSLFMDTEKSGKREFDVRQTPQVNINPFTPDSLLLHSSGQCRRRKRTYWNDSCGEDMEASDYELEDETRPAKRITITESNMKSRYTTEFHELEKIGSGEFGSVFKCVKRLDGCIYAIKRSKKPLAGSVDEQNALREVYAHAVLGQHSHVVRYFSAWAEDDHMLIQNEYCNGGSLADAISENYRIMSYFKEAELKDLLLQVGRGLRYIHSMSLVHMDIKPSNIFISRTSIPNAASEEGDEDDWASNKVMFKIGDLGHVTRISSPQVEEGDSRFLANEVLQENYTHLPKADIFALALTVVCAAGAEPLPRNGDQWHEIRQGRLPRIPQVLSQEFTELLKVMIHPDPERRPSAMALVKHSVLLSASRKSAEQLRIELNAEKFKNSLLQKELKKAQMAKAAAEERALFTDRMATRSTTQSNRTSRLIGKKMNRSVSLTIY
T6 sequence (Q96SW2 whole entry): as the sequence (Q96SW2 whole entry) above
T6 sequence (Q16531 whole entry partner): as the sequence (Q16531 whole entry partner) above
T5 sequence (P15170 whole entry): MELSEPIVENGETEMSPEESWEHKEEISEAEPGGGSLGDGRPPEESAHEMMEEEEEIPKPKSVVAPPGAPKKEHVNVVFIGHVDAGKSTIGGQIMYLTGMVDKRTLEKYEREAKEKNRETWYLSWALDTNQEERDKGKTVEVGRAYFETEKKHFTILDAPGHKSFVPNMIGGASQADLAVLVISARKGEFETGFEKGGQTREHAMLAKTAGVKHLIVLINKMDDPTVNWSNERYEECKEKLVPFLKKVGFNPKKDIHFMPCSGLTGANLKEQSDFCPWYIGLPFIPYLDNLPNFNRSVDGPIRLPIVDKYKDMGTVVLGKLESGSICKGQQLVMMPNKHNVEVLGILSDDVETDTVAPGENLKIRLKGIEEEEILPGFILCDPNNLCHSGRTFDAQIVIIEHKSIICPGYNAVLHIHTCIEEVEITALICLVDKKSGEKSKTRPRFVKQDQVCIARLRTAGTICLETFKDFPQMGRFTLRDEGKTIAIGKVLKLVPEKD
T5 sequence (Q96SW2 whole entry): as the sequence (Q96SW2 whole entry) above
T5 sequence (Q16531 whole entry partner): as the sequence (Q16531 whole entry partner) above
T3 sequence (P48729 whole entry): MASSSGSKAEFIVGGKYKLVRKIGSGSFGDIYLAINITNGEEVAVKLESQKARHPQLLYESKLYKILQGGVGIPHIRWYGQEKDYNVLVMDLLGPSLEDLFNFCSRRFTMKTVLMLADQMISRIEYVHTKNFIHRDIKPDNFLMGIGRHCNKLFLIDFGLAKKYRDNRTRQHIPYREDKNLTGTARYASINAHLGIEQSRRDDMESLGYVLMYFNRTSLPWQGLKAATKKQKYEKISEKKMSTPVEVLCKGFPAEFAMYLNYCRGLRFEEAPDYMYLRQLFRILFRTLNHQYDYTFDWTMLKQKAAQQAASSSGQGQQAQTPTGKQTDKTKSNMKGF
T3 sequence (Q96SW2 whole entry): as the sequence (Q96SW2 whole entry) above
T3 sequence (Q16531 whole entry partner): as the sequence (Q16531 whole entry partner) above

For `CC1(C)CCC(CN2CCN(Cc3ccc4c(c3)C(=O)N(N3CCC(=O)NC3=O)C4=O)CC2)=C(c2ccc(Cl)cc2)C1` [GT-05180, 5-((4-((4′-chloro-5,5-dimethyl-3,4,5,6-tetrahydro-[1,1′-biphenyl]-2-yl)methyl)piperazin-1-yl)methyl)-2-(2,4-dioxotetrahydropyrimidin-1(2H)-yl)isoindoline-1,3-dione], in test [1], the “IKZF2 substrate protein remaining %” value is “B (80%< substrate protein remaining % ≤100%)”. In test [2], the “IKZF1 substrate protein remaining %” value was “B (80%< substrate protein remaining % ≤100%)”. Moreover, the “CK1α substrate protein remaining %” value in test [3] is “B (80%< substrate protein remaining % ≤100%)”. Moreover, the “IKZF3 substrate protein remaining %” value in test [4] is “B (80%< substrate protein remaining % ≤100%)”. Also, the “GSPT1 substrate protein remaining %” value in test [5] is reported as “B (80%< substrate protein remaining % ≤100%)”. For the same compound, in test [6], the “WEE1 substrate protein remaining %” value is reported as “A (0% ≤ substrate protein remaining % ≤80%)”.

Take `O=C1CCN(N2C(=O)c3ccc(CN4CC=C(c5c[nH]c6ncccc56)CC4)cc3C2=O)C(=O)N1` [GT-05181, 5-((4-(1H-pyrrolo[2,3-b]pyridin-3-yl)-3,6-dihydropyridin-1(2H)-yl)methyl)-2-(2,4-dioxotetrahydropyrimidin-1(2H)-yl)isoindoline-1,3-dione]: the “IKZF2 substrate protein remaining %” value in test [1] is reported as “B (80%< substrate protein remaining % ≤100%)”. Besides, the “IKZF1 substrate protein remaining %” value in test [2] was “B (80%< substrate protein remaining % ≤100%)”. The “CK1α substrate protein remaining %” value in test [3] is “B (80%< substrate protein remaining % ≤100%)”. In addition, in test [4], the “IKZF3 substrate protein remaining %” value was “B (80%< substrate protein remaining % ≤100%)”. For the same compound, the “GSPT1 substrate protein remaining %” value in test [5] is “B (80%< substrate protein remaining % ≤100%)”. For the same compound, the “WEE1 substrate protein remaining %” value in test [6] is reported as “A (0% ≤ substrate protein remaining % ≤80%)”.

For `O=C1CCN(N2C(=O)c3ccc(CN4CC=C(c5cccc(Cl)c5Cl)CC4)cc3C2=O)C(=O)N1` [GT-05249, 5-((4-(2,3-dichlorophenyl)-3,6-dihydropyridin-1(2H)-yl)methyl)-2-(2,4-dioxotetrahydropyrimidin-1(2H)-yl)isoindoline-1,3-dione], the “IKZF2 substrate protein remaining %” value in test [1] was “B (80%< substrate protein remaining % ≤100%)”. Moreover, the “IKZF1 substrate protein remaining %” value in test [2] is “A (0% ≤ substrate protein remaining % ≤80%)”. Besides, the “CK1α substrate protein remaining %” value in test [3] is “B (80%< substrate protein remaining % ≤100%)”. Moreover, the “IKZF3 substrate protein remaining %” value in test [4] is listed as “B (80%< substrate protein remaining % ≤100%)”. The “GSPT1 substrate protein remaining %” value in test [5] was “A (0% ≤ substrate protein remaining % ≤80%)”. Besides, the “WEE1 substrate protein remaining %” value in test [6] is “B (80%< substrate protein remaining % ≤100%)”.

With `O=C1CCN(N2C(=O)c3ccc(CN4CCC(c5cccc(Cl)c5Cl)CC4)cc3C2=O)C(=O)N1` [GT-05250, 5-((4-(2,3-dichlorophenyl)piperidin-1-yl)methyl)-2-(2,4-dioxotetrahydropyrimidin-1(2H)-yl)isoindoline-1,3-dione], the “IKZF2 substrate protein remaining %” value in test [1] is “A (0% ≤ substrate protein remaining % ≤80%)”. Also, in test [2], the “IKZF1 substrate protein remaining %” value was “B (80%< substrate protein remaining % ≤100%)”. For the same compound, the “CK1α substrate protein remaining %” value in test [3] was “B (80%< substrate protein remaining % ≤100%)”. The “IKZF3 substrate protein remaining %” value in test [4] is “B (80%< substrate protein remaining % ≤100%)”. Moreover, the “GSPT1 substrate protein remaining %” value in test [5] is “B (80%< substrate protein remaining % ≤100%)”. Besides, the “WEE1 substrate protein remaining %” value in test [6] is “B (80%< substrate protein remaining % ≤100%)”.

As to `O=C1CCN(N2C(=O)c3ccc(CN4C5CC4CN(c4cccc(Cl)c4Cl)C5)cc3C2=O)C(=O)N1` [GT-05251, 5-((3-(2,3-dichlorophenyl)-3,6-diazabicyclo[3.1.1]heptan-6-yl)methyl)-2-(2,4-dioxotetrahydropyrimidin-1(2H)-yl)isoindoline-1,3-dione], the “IKZF2 substrate protein remaining %” value in test [1] was “A (0% ≤ substrate protein remaining % ≤80%)”. In test [2], the “IKZF1 substrate protein remaining %” value is given as “B (80%< substrate protein remaining % ≤100%)”. In addition, in test [3], the “CK1α substrate protein remaining %” value is “B (80%< substrate protein remaining % ≤100%)”. In addition, in test [4], the “IKZF3 substrate protein remaining %” value is reported as “B (80%< substrate protein remaining % ≤100%)”. In test [5], the “GSPT1 substrate protein remaining %” value was “B (80%< substrate protein remaining % ≤100%)”. Moreover, the “WEE1 substrate protein remaining %” value in test [6] is given as “B (80%< substrate protein remaining % ≤100%)”.

`O=C1CCN(N2C(=O)c3ccc(CN4CCn5c(nnc5C(F)(F)F)C4)cc3C2=O)C(=O)N1` [GT-05253, 2-(2,4-dioxotetrahydropyrimidin-1(2H)-yl)-5-((3-(trifluoromethyl)-5,6-dihydro-[1,2,4]triazolo[4,3-a]pyrazin-7 (8H)-yl)methyl)isoindoline-1,3-dione]: the “IKZF2 substrate protein remaining %” value in test [1] is recorded as “B (80%< substrate protein remaining % ≤100%)”. The “IKZF1 substrate protein remaining %” value in test [2] is “B (80%< substrate protein remaining % ≤100%)”. Also, the “CK1α substrate protein remaining %” value in test [3] was “B (80%< substrate protein remaining % ≤100%)”. For the same compound, the “IKZF3 substrate protein remaining %” value in test [4] is given as “B (80%< substrate protein remaining % ≤100%)”. Besides, in test [5], the “GSPT1 substrate protein remaining %” value is given as “A (0% ≤ substrate protein remaining % ≤80%)”. Moreover, the “WEE1 substrate protein remaining %” value in test [6] is “B (80%< substrate protein remaining % ≤100%)”.

In the case of `O=C1CCN(N2C(=O)c3ccc(CN4CCc5sccc5C4)cc3C2=O)C(=O)N1` [GT-05254, 5-((6,7-dihydrothieno[3,2-c]pyridin-5 (4H)-yl)methyl)-2-(2,4-dioxotetrahydropyrimidin-1(2H)-yl)isoindoline-1,3-dione], the “IKZF2 substrate protein remaining %” value in test [1] is given as “B (80%< substrate protein remaining % ≤100%)”. In addition, the “IKZF1 substrate protein remaining %” value in test [2] is reported as “B (80%< substrate protein remaining % ≤100%)”. Besides, in test [3], the “CK1α substrate protein remaining %” value is “B (80%< substrate protein remaining % ≤100%)”. Further, the “IKZF3 substrate protein remaining %” value in test [4] is reported as “B (80%< substrate protein remaining % ≤100%)”. For the same compound, the “GSPT1 substrate protein remaining %” value in test [5] was “A (0% ≤ substrate protein remaining % ≤80%)”. Moreover, the “WEE1 substrate protein remaining %” value in test [6] is “B (80%< substrate protein remaining % ≤100%)”.

For `O=C1CCN(N2C(=O)c3ccc(CN4CCC(c5c[nH]c6cc(F)ccc56)CC4)cc3C2=O)C(=O)N1` [GT-05259, 2-(2,4-dioxotetrahydropyrimidin-1(2H)-yl)-5-((4-(6-fluoro-1H-indol-3-yl)piperidin-1-yl)methyl)isoindoline-1,3-dione], the “IKZF2 substrate protein remaining %” value in test [1] is on record as “A (0% ≤ substrate protein remaining % ≤80%)”. The “IKZF1 substrate protein remaining %” value in test [2] was “A (0% ≤ substrate protein remaining % ≤80%)”. In addition, the “CK1α substrate protein remaining %” value in test [3] is given as “B (80%< substrate protein remaining % ≤100%)”. Further, the “IKZF3 substrate protein remaining %” value in test [4] is “B (80%< substrate protein remaining % ≤100%)”. Further, in test [5], the “GSPT1 substrate protein remaining %” value is reported as “A (0% ≤ substrate protein remaining % ≤80%)”. Further, the “WEE1 substrate protein remaining %” value in test [6] is “B (80%< substrate protein remaining % ≤100%)”.

The values above are taken from US20260356819A1, “OXOISOINDOLINYL-SUBSTITUTED […] DERIVATIVE AND USE THEREOF” (GLUETACS THERAPEUTICS (SHANGHAI) CO., LTD., priority 2023, published 2026).
